The test system of experiment [1] is KMS11 (human myeloma cell line). The experiment in a line: Cell Proliferation Assay (CellTiter-Glo, 3 days). The class given is cell-based. Particulars: KMS-11, 72 h, KMS11-luc cells. The procedure, abridged:
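KMS11 myeloma cells, 2000 per well in IMDM with 10% FBS, exposed to compound for 3 days at 37° C. Viability read by CellTiter-Glo luminescence; EC50 derived.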
For orientation: Cellular ATP, detected with luciferase, serves as a proxy for viable cell number.

Experiment [2] deals with Pim 1 (Homo sapiens, UniProt P11309). The experiment in a line: Pim 1 AlphaScreen assay (high ATP).
Chain of Pim 1 (P11309 whole entry): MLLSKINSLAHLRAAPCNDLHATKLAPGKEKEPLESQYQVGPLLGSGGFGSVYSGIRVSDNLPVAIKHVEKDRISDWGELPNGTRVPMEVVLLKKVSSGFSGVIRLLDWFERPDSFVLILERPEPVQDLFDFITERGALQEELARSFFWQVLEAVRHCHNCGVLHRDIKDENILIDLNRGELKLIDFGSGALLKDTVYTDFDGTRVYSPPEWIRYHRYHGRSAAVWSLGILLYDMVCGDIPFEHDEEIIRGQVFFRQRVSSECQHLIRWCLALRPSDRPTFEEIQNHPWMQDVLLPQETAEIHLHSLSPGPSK
In experiment [3] the target is Pim 2 (Homo sapiens, UniProt Q9P1W9). In words: Pim 2 AlphaScreen assay (high ATP).
Chain of Pim 2 (Q9P1W9 whole entry): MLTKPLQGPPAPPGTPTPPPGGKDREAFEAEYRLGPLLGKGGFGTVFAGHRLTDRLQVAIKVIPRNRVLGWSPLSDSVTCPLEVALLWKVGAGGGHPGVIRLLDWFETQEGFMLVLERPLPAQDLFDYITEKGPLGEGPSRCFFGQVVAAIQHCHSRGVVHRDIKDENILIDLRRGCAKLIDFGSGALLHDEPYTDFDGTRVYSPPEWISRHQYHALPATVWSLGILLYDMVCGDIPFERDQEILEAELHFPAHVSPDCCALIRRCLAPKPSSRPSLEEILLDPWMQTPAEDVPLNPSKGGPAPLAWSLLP
Procedure: The activity of Pim 1, Pim 2, & Pim 3 is measured using a homogeneous bead based system quantifying the amount of phosphorylated peptide substrate resulting from kinase-catalyzed phosphoryl transfer to a peptide substrate. Compounds to be tested are dissolved in 100% DMSO and directly distributed to a white 384-well plate at 0.25 μl per well. […] This is followed by the addition of 5 μl/well of Pim 1, Pim 2 or Pim 3 kinase in assay buffer (concentrations described below). Final assay concentrations (described below) are in 2.5% DMSO. The reactions are performed for ˜2 hours, then stopped by the addition of 10 μl of 0.75 μg/ml anti-phospho Ser/Thr antibody (Cell Signaling), 10 μg/ml Protein A AlphaScreen beads (Perkin Elmer), and 10 μg/ml streptavidin coated AlphaScreen beads in stop/detection buffer (50 mM EDTA, 95 mM Tris, pH=7.5, 0.01% Tween-20). The stopped reactions are incubated overnight in the dark. The phosphorylated peptide is detected via an oxygen anion initiated chemiluminescence/fluorescence cascade using the Envision plate reader (Perkin Elmer).
Experiment [4] has as its target Pim 3 (Homo sapiens, UniProt Q86V86). In words: Pim 3 AlphaScreen assay (high ATP). (In general: In Alpha technology, singlet oxygen from a donor bead excites a nearby acceptor bead.)

Turning to `Cc1cc(F)c(-c2nc(C(=O)Nc3cnccc3[C@H]3C[C@@H](N)[C@H](O)[C@@H](C)C3)c(N)cc2F)c(F)c1` [Example 219, 3-amino-N-(4-((1R,3R,4R,5S)-3-amino-4-hydroxy-5-methylcyclohexyl)pyridin-3-yl)-6-(2,6-difluoro-4-methylphenyl)-5-fluoropicolinamide], the EC50 (commonly the concentration needed to bring the measured effect to its halfway point) in experiment [1] came out at 23 nM. Further, the figures for the IC50 in experiment [2], in experiment [3] and in experiment [4] were 0.03 nM, 2.01 nM and 0.65 nM, respectively.
Compound `C[C@H]1C[C@@H](c2ccncc2NC(=O)c2ccc(F)c(-c3c(F)cc(C4(F)COC4)cc3F)n2)C[C@@H](N)[C@H]1O` [Example 137, N-(4-((1R,3R,4S,5S)-3-amino-4-hydroxy-5-methylcyclohexyl)pyridin-3-yl)-6-(2,6-difluoro-4-(3-fluorooxetan-3-yl)phenyl)-5-fluoropicolinamide] showed an EC50 in experiment [1] of 549 nM. In addition, the IC50 (commonly the midpoint of a concentration-inhibition curve) in experiment [2] came to 0.08 nM; in experiment [3], 10.3 nM; in experiment [4] it was 6.9 nM.
The matching figures for `C[C@H]1C[C@@H](c2ccncc2NC(=O)c2ccc(F)c(-c3c(F)cc(O[C@@H]4CCCOC4)cc3F)n2)C[C@@H](N)[C@@H]1O` [Example 78, N-(4-((1R,3R,4R,5S)-3-amino-4-hydroxy-5-methylcyclohexyl)pyridin-3-yl)-6-(2,6-difluoro-4-((R)-tetrahydro-2H-pyran-3-yloxy)phenyl)-5-fluoropicolinamide]: 22 nM, 0.02 nM, 1.23 nM and 0.56 nM.
With `C[C@H]1CN(c2ccncc2NC(=O)c2ccc(F)c(-c3c(F)cc(OCCO)cc3F)n2)C[C@@H](N)[C@@H]1O` [Example 21, N-(4-((3R,4R,5S)-3-amino-4-hydroxy-5-methylpiperidin-1-yl)pyridin-3-yl)-6-(2,6-difluoro-4-(2-hydroxyethoxy)phenyl)-5-fluoropicolinamide], the EC50 in experiment [1] stood at 13 nM. The IC50 amounted to 0.02 nM in experiment [2], 1.19 nM in experiment [3] and 0.34 nM in experiment [4].
`COCCOc1cc(F)c(-c2nc(C(=O)Nc3cnccc3[C@H]3C[C@@H](N)[C@H](O)[C@@H](C)C3)ccc2F)c(F)c1` [Example 24, N-(4-((1R,3R,4R,5S)-3-amino-4-hydroxy-5-methylcyclohexyl)pyridin-3-yl)-6-(2,6-difluoro-4-(2-methoxyethoxy)phenyl)-5-fluoropicolinamide] yielded an EC50 in experiment [1] of 72 nM. The IC50 in experiment [2] came out at 0.07 nM; in experiment [3] it was 5.57 nM; in experiment [4], 2.46 nM.
The matching figures for `CC(C)[C@@H]1C[C@H](N)C[C@H](c2ccncc2NC(=O)c2ccc(F)c(-c3c(F)cc(C4CCOCC4)cc3F)n2)C1` [Example 139, N-(4-((1R,3S,5S)-3-amino-5-isopropylcyclohexyl)pyridin-3-yl)-6-(2,6-difluoro-4-(tetrahydro-2H-pyran-4-yl)phenyl)-5-fluoropicolinamide]: 153 nM, 0.01 nM, 0.63 nM and 0.36 nM.
In the case of `COCCOc1cc(F)c(-c2nc(C(=O)Nc3cnccc3[C@H]3C[C@@H](N)[C@@H](O)[C@@H](C)C3)ccc2F)c(F)c1` [Example 124, N-(4-((1R,3R,4S,5S)-3-amino-4-hydroxy-5-methylcyclohexyl)pyridin-3-yl)-6-(2,6-difluoro-4-(2-methoxyethoxy)phenyl)-5-fluoropicolinamide], the EC50 in experiment [1] was determined as 119 nM. The IC50 in experiment [2] is 0.06 nM; in experiment [3] it was 7.18 nM; in experiment [4], 1.72 nM.
In the case of `COC1(c2cc(F)c(-c3nc(C(=O)Nc4cnccc4[C@@H]4C[C@H](C)C[C@H](N)C4)c(N)cc3F)c(F)c2)COC1` [Example 90, 3-amino-N-(4-((1R,3S,5S)-3-amino-5-methylcyclohexyl)pyridin-3-yl)-6-(2,6-difluoro-4-(3-methoxyoxetan-3-yl)phenyl)-5-fluoropicolinamide], the EC50 in experiment [1] turned out to be 19 nM. Moreover, the IC50 is 0.01 nM in experiment [2], 0.72 nM in experiment [3] and 0.71 nM in experiment [4].
Regarding `C[C@@H]1C[C@H](N)C[C@H](c2ccncc2NC(=O)c2nc(-c3c(F)cc(OC4CCOCC4)cc3F)c(F)cc2N)C1` [Example 86, 3-amino-N-(4-((1R,3S,5S)-3-amino-5-methylcyclohexyl)pyridin-3-yl)-6-(2,6-difluoro-4-(tetrahydro-2H-pyran-4-yloxy)phenyl)-5-fluoropicolinamide], the EC50 in experiment [1] was determined as 17 nM. Also, the figures for the IC50 in experiment [2], in experiment [3] and in experiment [4] were 0.01 nM, 0.91 nM and 0.22 nM, respectively.
The matching figures for `CC(C)Oc1cc(F)c(-c2nc(C(=O)Nc3cnccc3N3C[C@@H](N)[C@H](O)[C@@H](C)C3)ccc2F)c(F)c1` [Example 93, N-(4-((3R,4R,5S)-3-amino-4-hydroxy-5-methylpiperidin-1-yl)pyridin-3-yl)-6-(2,6-difluoro-4-isopropoxyphenyl)-5-fluoropicolinamide]: 20 nM, 0.01 nM, 0.78 nM and 0.1 nM.
Take `C[C@H]1C[C@@H](c2ccncc2NC(=O)c2ccc(F)c(-c3c(F)cc(OCC(C)(C)O)cc3F)n2)C[C@@H](N)[C@@H]1O` [Example 51, N-(4-((1R,3R,4R,5S)-3-amino-4-hydroxy-5-methylcyclohexyl)pyridin-3-yl)-6-(2,6-difluoro-4-(2-hydroxy-2-methylpropoxy)phenyl)-5-fluoropicolinamide]: in experiment [1], the EC50 was determined as 30 nM. The results for the IC50 in experiment [2], in experiment [3] and in experiment [4] were 0.03 nM, 4.34 nM and 1.02 nM, respectively.
In the case of `C[C@@H]1C[C@H](N)C[C@H](c2ccncc2NC(=O)c2ccc(F)c(-c3c(F)cc(C4(O)CCC4)cc3F)n2)C1` [Example 61, N-(4-((1R,3S,5S)-3-amino-5-methylcyclohexyl)pyridin-3-yl)-6-(2,6-difluoro-4-(1-hydroxycyclobutyl)phenyl)-5-fluoropicolinamide], the EC50 in experiment [1] worked out at 47 nM. The IC50 in experiment [2] was 0.02 nM; in experiment [3], 1 nM; in experiment [4] it was 0.52 nM.
Compound `COC(C)(C)c1cc(F)c(-c2nc(C(=O)Nc3cnccc3[C@@H]3C[C@H](C)C[C@H](N)C3)ccc2F)c(F)c1` [Example 49, N-(4-((1R,3S,5S)-3-amino-5-methylcyclohexyl)pyridin-3-yl)-6-(2,6-difluoro-4-(2-methoxypropan-2-yl)phenyl)-5-fluoropicolinamide] had an EC50 in experiment [1] of 53 nM. Also, the IC50 came to 0.03 nM in experiment [2], 2.67 nM in experiment [3] and 1.86 nM in experiment [4].
For `C[C@@H]1C[C@H](N)C[C@H](c2ccncc2NC(=O)c2ccc(F)c(-c3c(F)cc(C4(C#N)CCOCC4)cc3F)n2)C1` [Example 170, N-(4-((1R,3S,5S)-3-amino-5-methylcyclohexyl)pyridin-3-yl)-6-(4-(4-cyanotetrahydro-2H-pyran-4-yl)-2,6-difluorophenyl)-5-fluoropicolinamide], in that order: 84 nM, 0.03 nM, 2.83 nM and 4.54 nM.
For `C[C@H]1C[C@@H](c2ccncc2NC(=O)c2ccc(F)c(-c3c(F)cc(OC4COC4)cc3F)n2)C[C@@H](N)[C@@H]1O` [Example 47, N-(4-((1R,3R,4R,5S)-3-amino-4-hydroxy-5-methylcyclohexyl)pyridin-3-yl)-6-(2,6-difluoro-4-(oxetan-3-yloxy)phenyl)-5-fluoropicolinamide], in that order: 97 nM, 0.04 nM, 6.33 nM and 1.32 nM.
Compound `C[C@H]1CN(c2ccncc2NC(=O)c2ccc(F)c(-c3c(F)cc(C4(O)CCC4)cc3F)n2)C[C@@H](N)[C@@H]1O` [Example 76, N-(4-((3R,4R,5S)-3-amino-4-hydroxy-5-methylpiperidin-1-yl)pyridin-3-yl)-6-(2,6-difluoro-4-(1-hydroxycyclobutyl)phenyl)-5-fluoropicolinamide] gave an EC50 in experiment [1] of 9 nM. Besides, the IC50 in experiment [2] amounted to 0.01 nM; in experiment [3], 0.71 nM; in experiment [4], 0.22 nM.
Compound `C[C@@H]1C[C@H](N)C[C@H](c2ccncc2NC(=O)c2cccc(-c3c(F)cc(C4CCOCC4)cc3F)n2)C1` [Example 192, N-(4-((1R,3S,5S)-3-amino-5-methylcyclohexyl)pyridin-3-yl)-6-(2,6-difluoro-4-(tetrahydro-2H-pyran-4-yl)phenyl)picolinamide] had an EC50 in experiment [1] of 114 nM. Also, the values for the IC50 in experiment [2], in experiment [3] and in experiment [4] were 0.02 nM, 3.49 nM and 1.06 nM, respectively.
In experiment [1], `C[C@@H]1C[C@H](N)C[C@H](c2ccncc2NC(=O)c2ccc(F)c(-c3c(F)cc4c(c3F)OCC[C@]4(C)O)n2)C1` [Example 239, N-(4-((1R,3S,5S)-3-amino-5-methylcyclohexyl)pyridin-3-yl)-6-((S)-6,8-difluoro-4-hydroxy-4-methylchroman-7-yl)-5-fluoropicolinamide] came in with an EC50 of 31 nM. In addition, the values for the IC50 in experiment [2], in experiment [3] and in experiment [4] were 0.01 nM, 1.72 nM and 1.1 nM, respectively.
In experiment [1], `C[C@@H]1C[C@H](N)C[C@H](c2ccncc2NC(=O)c2ccc(F)c(-c3c(F)cc([C@@H](O)CO)cc3F)n2)C1` [Example 232, N-(4-((1R,3S,5S)-3-amino-5-methylcyclohexyl)pyridin-3-yl)-6-(4-((R)-1,2-dihydroxyethyl)-2,6-difluorophenyl)-5-fluoropicolinamide] came in with an EC50 of 47 nM. In addition, the IC50 in experiment [2] was determined as 0.05 nM; in experiment [3] it was 3.01 nM; in experiment [4], 2.07 nM.

The values are drawn from US20120225062A1 (priority 2011, published 2012).
